Measurements published in patent US20110052730A1, “Leaves Extract of Panax sp., a Process of Making the Same and Uses Thereof” (UNIGEN, INC., priority 2008, published 2011).

Test: Physicochemical properties of ginsenosides (soluble in)

Compound	Soluble in
C=C(CCC=C(C)C)C1CCC2(C)C1[C@H](O)CC1[C@@]3(C)CCC(OC4OC(CO)C(O)C(O)C4OC4OC(CO)C(O)C(O)C4O)C(C)(C)C3CC[C@]12C (some centres unmarked) [Rk1]	Alcohol
CC(C)=CC/C=C(/C)C1CCC2(C)C1[C@H](O)CC1[C@@]3(C)CCC(OC4OC(CO)C(O)C(O)C4OC4OC(CO)C(O)C(O)C4O)C(C)(C)C3CC[C@]12C (some centres unmarked) [Rg5]	Alcohol
